Data from patent publication US20250154197A1, “LIPOLYTIC PEPTIDES” (FUNDACIÓ HOSPITAL UNIVERSITARI VALL D'HEBRON - INSTITUT DE …, priority 2021, published 2025).
Where no end group is shown, it is not given here. [ ]: non-standard residue; d: D form.

Tests used:
Format in all cases: cell-based
[1] = tested on: 3T3-L1 mouse adipocytes; test: Lipolytic activity: glycerol release in differentiated 3T3-L1 mouse adipocytes (12 h); details: for Lipolysis Activity measured as Glycerol (μM) release in media: 3T3-L1 mouse adipocytes, 12 h
Method: JCRB9014-A) from Tebu-Bio (Tebu-bio, Barcelona, Spain). Briefly, mouse adipocytes (3T3-L1 cells) were cultured in 48 well plates as described previously (Saez-Lopez et al., 2020). Adipocytes were differentiated using cell culture reagents purchased from Tebu-Bio and following the manufacturer's instructions. At day of differentiation cells were treated in duplicates with vehicle (DMSO), Caffeine (100 μg/ml), and each of the peptides at the specified doses in Table 6a below. At the end of the experiment (12 h), supernatants were collected and glycerol content was measured using a Glycerol Assay Kit (Sigma) following manufacturer's instructions.

[2] = tested on: human subcutaneoous mature adipocytes; test: Lipolytic activity: glycerol release in human adipocytes (Lipolysis Assay kit); details: human subcutaneous mature adipocytes
[3] = tested on: differentiated human subcutaneous adipocytes; test: Time course lipolytic activity: glycerol release at 120' and 240'; details: for Lipolytic activity measured as glycerol release: 10 ug/ml, human subcutaneous adipocytes
Method: At the end of the experiment, supernatants were collected and glycerol content was measured using a Lipolysis Assay kit from Tebu-bio (LIP-1—NC) following the manufacturer's instructions.

Cn1c(=O)c2c(ncn2C)n(C)c1=O [Caffeine]
Lipolysis Activity measured as Glycerol (μM) release in media ([1]; 100 μg/ml): 297 µM
Lipolysis Activity measured as Glycerol (μM) release in media ([2]; 100 μg/ml): 35.53 µM
lipolytic activity at 120' ([3]; 120', 10 μg/ml): neither caffeine nor the comparative peptide, at the same dose, provided any significant activity at that time
Lipolytic activity measured as glycerol release ([3]; 120 min): −3.0856 UM
Lipolytic activity measured as glycerol release ([3]; 240 min): 17.1602 UM

DPEGVIF (H-[dD][dP][dE]G[dV][dI][dF]-OH; SMILES CC[C@@H](C)[C@@H](NC(=O)[C@H](NC(=O)CNC(=O)[C@@H](CCC(=O)O)NC(=O)[C@H]1CCCN1C(=O)[C@H](N)CC(=O)O)C(C)C)C(=O)N[C@H](Cc1ccccc1)C(=O)O) [GP3D-7 I II X, N-term NH2, C-term COOH]
Lipolysis Activity measured as Glycerol (μM) release in media ([1]; 1 μg/ml): 391 µM
Lipolysis Activity measured as Glycerol (μM) release in media ([1]; 10 μg/ml): 405 µM
Lipolysis Activity measured as Glycerol (μM) release in media ([1]; 100 μg/ml): 313 µM
Lipolysis Activity measured as Glycerol (μM) release in media ([2]; 25 μg/ml): 17.04 µM
Lipolysis Activity measured as Glycerol (μM) release in media ([2]; 50 μg/ml): 34.80 µM
Lipolysis Activity measured as Glycerol (μM) release in media ([2]; 75 μg/ml): 48.09 µM
Lipolysis Activity measured as Glycerol (μM) release in media ([2]; 100 μg/ml): 58.31 µM

TWDPEGVIFY [GP3D] ([dT][dW][dD][dP][dE]G[dV][dI][dF][dY]) [N-term NH2, C-term COOH]
Lipolysis Activity measured as Glycerol (μM) release in media ([1]; 1 μg/ml): 538 µM
Lipolysis Activity measured as Glycerol (μM) release in media ([1]; 10 μg/ml): 574 µM
Lipolysis Activity measured as Glycerol (μM) release in media ([1]; 100 μg/ml): 580 µM
increase in lipolytic activity compared to the L version ([1]; D-decapeptide vs L version (SEQ ID NO: 2)): about 2 fold
Lipolytic activity measured as glycerol release ([3]; 120 min, listed as SEQ ID NO: 3): 24.8964 UM
Lipolytic activity measured as glycerol release ([3]; 240 min, listed as SEQ ID NO: 3): 90.1603 UM
fold more efficient in inducing lipolysis vs caffeine or SEQ ID NO:2 ([3]; time 120', 10 μg/ml): more than 24 fold
fold more efficient in inducing lipolysis vs caffeine or SEQ ID NO:2 ([3]; time 240', 10 μg/ml): more than 5 fold

Ac-TWDPEGVIFY (Ac-[dT][dW][dD][dP][dE]G[dV][dI][dF][dY]) [GP3D-Ac, N-term CH3CONH, C-term COOH]
Lipolysis Activity measured as Glycerol (μM) release in media ([1]; 1 μg/ml): 354 µM
Lipolysis Activity measured as Glycerol (μM) release in media ([1]; 10 μg/ml): 388 µM
Lipolysis Activity measured as Glycerol (μM) release in media ([1]; 100 μg/ml): 498 µM
Lipolysis Activity measured as Glycerol (μM) release in media ([2]; 25 μg/ml): 16.56 µM
Lipolysis Activity measured as Glycerol (μM) release in media ([2]; 50 μg/ml): 36.41 µM
Lipolysis Activity measured as Glycerol (μM) release in media ([2]; 75 μg/ml): 43.36 µM
Lipolysis Activity measured as Glycerol (μM) release in media ([2]; 100 μg/ml): 58.41 µM

TWDPEGVIFY [GP3L, comparative L-decapeptide; N-term NH2, C-term COOH, reference compound]
Lipolysis Activity measured as Glycerol (μM) release in media ([1]; 1 μg/ml): 230 µM
Lipolysis Activity measured as Glycerol (μM) release in media ([1]; 10 μg/ml): 250 µM
Lipolysis Activity measured as Glycerol (μM) release in media ([1]; 100 μg/ml): 360 µM
Lipolytic activity measured as glycerol release ([3]; 120 min, listed as SEQ ID NO: 2): −0.5343 UM
Lipolytic activity measured as glycerol release ([3]; 240 min, listed as SEQ ID NO: 2): 17.7363 UM

DPEGVIY (H-[dD][dP][dE]G[dV][dI][dY]-OH; SMILES CC[C@@H](C)[C@@H](NC(=O)[C@H](NC(=O)CNC(=O)[C@@H](CCC(=O)O)NC(=O)[C@H]1CCCN1C(=O)[C@H](N)CC(=O)O)C(C)C)C(=O)N[C@H](Cc1ccc(O)cc1)C(=O)O) [GP3D-7 I II IX, N-term NH2, C-term COOH]
Lipolysis Activity measured as Glycerol (μM) release in media ([1]; 1 μg/ml): 417 µM
Lipolysis Activity measured as Glycerol (μM) release in media ([1]; 10 μg/ml): 380 µM
Lipolysis Activity measured as Glycerol (μM) release in media ([1]; 100 μg/ml): 346 µM
Lipolysis Activity measured as Glycerol (μM) release in media ([2]; 25 μg/ml): 19.68 µM
Lipolysis Activity measured as Glycerol (μM) release in media ([2]; 50 μg/ml): 34.01 µM
Lipolysis Activity measured as Glycerol (μM) release in media ([2]; 75 μg/ml): 46.62 µM
Lipolysis Activity measured as Glycerol (μM) release in media ([2]; 100 μg/ml): 56.08 µM

WDPEGV (H-[dW][dD][dP][dE]G[dV]-OH; SMILES CC(C)[C@@H](NC(=O)CNC(=O)[C@@H](CCC(=O)O)NC(=O)[C@H]1CCCN1C(=O)[C@@H](CC(=O)O)NC(=O)[C@H](N)Cc1c[nH]c2ccccc12)C(=O)O) [GP3D-6 I VIII IX X, N-term NH2, C-term COOH]
Lipolysis Activity measured as Glycerol (μM) release in media ([1]; 100 μg/ml): 360 µM
Lipolysis Activity measured as Glycerol (μM) release in media ([2]; 25 μg/ml): 18.07 µM
Lipolysis Activity measured as Glycerol (μM) release in media ([2]; 50 μg/ml): 32.53 µM
Lipolysis Activity measured as Glycerol (μM) release in media ([2]; 75 μg/ml): 47.82 µM
Lipolysis Activity measured as Glycerol (μM) release in media ([2]; 100 μg/ml): 51.90 µM

NDPEGVIY (H-[dN][dD][dP][dE]G[dV][dI][dY]-OH; SMILES CC[C@@H](C)[C@@H](NC(=O)[C@H](NC(=O)CNC(=O)[C@@H](CCC(=O)O)NC(=O)[C@H]1CCCN1C(=O)[C@@H](CC(=O)O)NC(=O)[C@H](N)CC(N)=O)C(C)C)C(=O)N[C@H](Cc1ccc(O)cc1)C(=O)O) [GP3D-DM6, N-term NH2, C-term COOH]
Lipolysis Activity measured as Glycerol (μM) release in media ([1]; 1 μg/ml): 304 µM
Lipolysis Activity measured as Glycerol (μM) release in media ([1]; 100 μg/ml): 405 µM
Lipolysis Activity measured as Glycerol (μM) release in media ([2]; 25 μg/ml): 19.83 µM
Lipolysis Activity measured as Glycerol (μM) release in media ([2]; 50 μg/ml): 37.09 µM
Lipolysis Activity measured as Glycerol (μM) release in media ([2]; 75 μg/ml): 48.37 µM
Lipolysis Activity measured as Glycerol (μM) release in media ([2]; 100 μg/ml): 55.19 µM
